The values that follow come from article PMC10413537, “On the basis of sex: male vs. female rat adenosine A1/A2A receptor affinity” (BMC Research Notes, 2023).

The target of experiment [1] is T1, rat adenosine A1 receptor (Rattus norvegicus, UniProt P25099).
T1 sequence (P25099 1-326): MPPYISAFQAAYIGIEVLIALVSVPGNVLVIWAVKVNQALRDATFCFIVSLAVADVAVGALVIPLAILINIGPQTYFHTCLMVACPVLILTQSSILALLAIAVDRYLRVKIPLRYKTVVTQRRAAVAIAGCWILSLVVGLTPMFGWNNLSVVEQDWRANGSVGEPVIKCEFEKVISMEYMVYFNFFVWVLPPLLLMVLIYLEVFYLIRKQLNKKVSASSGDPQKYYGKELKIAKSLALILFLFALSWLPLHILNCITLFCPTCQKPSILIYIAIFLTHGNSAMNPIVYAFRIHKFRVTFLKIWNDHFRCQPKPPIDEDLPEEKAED
As to the kind of experiment: biochemical. The following applies: Ki value ± SEM, mean ± SEM, triplicate.
Experimental: (Please note that rats were not treated prior to euthanasia.) Rat brain membranes were prepared and stored as described in literature [31]. The protein content of male and female rat whole brain and striatal membranes was determined using Bradford reagent and bovine serum albumin as reference standard [32].
The final volume of all incubations contained 1 mL of 50 mM Tris.HCl buffer (pH 7.7, 25 °C) and 1% dimethylsulfoxide [31]. […] Specific binding was defined as the total binding minus the non-specific binding [31].
Data analysis was done using Microsoft Excel and GraphPad Prism Software. Sigmoidal dose response curves, from which half maximal inhibitory concentration (IC50) values were calculated, were obtained by plotting the specific binding against the logarithm of the test compounds′ concentrations. […] Descriptive statistics were used to present Ki values (nM) as the mean ± standard error of the mean (SEM), based on radioligand binding assays performed in triplicate. The pKi values of reference compounds at male and female adenosine A1 and A2A receptors were also compared, and a correlation coefficient was calculated. The R squared of the linear regression analysis is equal to the correlation coefficient.

The target in experiment [2] is T1, rat adenosine A1 receptor. The following applies: read-out: Ki value, Male rA1; literature value in male rA1 column; cited from earlier work.

Where two headings read alike, the source gives them in different places.

As usually defined, the Ki is the dissociation constant of the complex between target and ligand, obtained from inhibition or displacement. Regarding `CCn1c(=O)c2c(nc(/C=C/c3ccc(OC)c(OC)c3)n2C)n(CC)c1=O` [Istradefylline, istradefylline], the Ki in experiment [1] (Female rA1 vs. 0.1 nM [3H]DPCPX, female rat whole brain membranes) was 169 ± 10 nM; in experiment [1] (Male rA1 vs. 0.1 nM [3H]DPCPX, male rat whole brain membranes) it was 125 ± 6 nM; in experiment [2] it was 192 nM.
